We go through one molecule from patent publication US20060088560A1, “Cosmetic use of mangiferin” (LA[…] BIOLOGIE VEGETALE YVES ROCHER, priority 2004, published 2006).

The structures appear in SMILES notation.

In series [1] the test system is HSP70. Kind of series: Curative protection: HSP70 immunolabeling in normal human dermal fibroblasts treated with mangiferin after hot heat stress. The class given is cell-based. As to the method:
The fibroblasts (NHDFS) are seeded (passage 3) onto glass Labtek culture chambers (8 chambers/slide) to a proportion of 10 000 cells/chamber and incubated for 10 hours in an incubator at 37° C., 5% CO2 and 95% humidity. The culture medium consists of DMEM devoid of phenol red (Invitrogen, ref. 31053028) supplemented with 10% fetal calf serum (FCS) (Invitrogen, ref 16010159, batch 40F1420D), 1% of a solution of non-essential amino acids (Invitrogen, ref 11140035), 100 μg/ml penicillin, 100 U/ml streptomycin, 2 mM L-gluthamine and 1% of a sodium pyruvate solution (Invitrogen, ref. 11360039).
The NHDFs are rinsed in the HBSS solution then incubated 15 hours in the culture medium (DMEM with 1% FCS), in an incubator at 37° C., 5% CO2 and 95% humidity.
The cells are subsequently rinsed in an HBSS solution (Invitrogen, ref. 14025050) then placed under conditions of hot thermal stress: incubation 1 hour at +45° C. in the HBSS solution (0.4 ml per chamber).
After the stress, the cells are rinsed in the HBSS solution then treated for 8 hours with the mangiferin solubilized in the DMSO, then diluted in the culture medium (DMEM with 1% FCS) to 2.10^−4%. A reference culture medium is also made on the same slide.
The cells are rinsed in an HBSS solution 8 hours after the stress. The culture chambers are removed and the cells left to dry under a laminar flow hood. […]

For series [2], the system named is HSP70. Kind of series: Preventive protection: HSP70 immunolabeling in normal human dermal fibroblasts treated with mangiferin before hot heat stress. In kind it is cell-based. As to the method: Normal human dermal fibroblasts (NHDFs) are seeded (passage 3) onto glass Labtek culture chambers (8 chambers/slide) to a proportion of 10 000 cells/chamber and incubated for 10 hours in an incubator at 37° C., 5% CO2 and 95% humidity. The culture medium consists of DMEM devoid of phenol red (Invitrogen, ref. 31053028) supplemented with 10% fetal calf serum (FCS) (Invitrogen, ref 16010159, batch 40F1420D), 1% of a solution of non-essential amino acids (Invitrogen, ref 11140035), 100 μg/ml penicillin, 100 U/ml streptomycin, 2 mM L-gluthamine and 1% of a sodium pyruvate solution (Invitrogen, ref. 11360039).
The NHDFs are treated for 15 hours with mangiferin solubilized at 0.1% in DMSO, then diluted in the culture medium (DMEM with 1% FCS) to 2.10^−4%. A reference culture medium is also made on the same slide. To validate the study, a slide is treated in the same manner but the cells are not subjected to stress.
The cells are subsequently rinsed in Hanks Balanced Saline Solution (HBSS buffer Invitrogen, ref. 14025050) then placed under hot thermal stress conditions: incubation 1 hour at +45° C. in the HBSS solution (0.4 ml per chamber.).
After the stress, the cells are rinsed in the HBSS solution then incubated 8 hours in the culture medium (DMEM with 1% FCS), in an incubator at 37° C., 5% CO2 and 95% humidity.
The cells are rinsed in HBSS solution 8 hours after the stress. […]

The conditions of series [3]: cited from earlier work.
The test system of a further series is MMP1 metalloprotease. Kind of series: Assay of MMP1 metalloprotease (ELISA, per viable cell unit by MTT) in NHDFs after heat stimulation. The class given is cell-based, human. The following applies: mangiferin 2.10^-4% w/v, MMP1 per viable cell unit vs reference without mangiferin. An excerpt:
In this example, to illustrate the inhibitive action of mangiferin on the expression of MMP enzymes, the quantity of MMP1 enzymes present in normal human dermal fibroblasts (NHDFs) after a heat stress in the presence of mangiferin was compared with the quantity obtained for NHDFs in a reference medium subjected to the same conditions but without the presence of mangiferin.
This comparison was made for different conditions of heat treatment (no stress, hot stress, cold stress).
In each case, the tested NHDFs were placed in culture then treated under the following conditions:
The first day (day D), the NHDFs were seeded to a proportion of 160 000 cells/well/mL in 24-well plates in a normal medium.
The following day (day D+1), the culture medium was depleted of serum.
When the test was conducted in the presence of mangiferin, the treatment with mangiferin was complete, i.e. the mangiferin was added to the medium to a content of 2.10^−4 g/100 mL (2.10^−4% w/v) 24 hours before the heat stress, during the heat stress and 24 hours after the onset of heat stress.
On the contrary, no mangiferin at all was added to the references.
After these steps, 24 hours after the heat stress, the MMP1 present in the medium was assayed using a quantitative technique of ELISA type, with a commercial Amersham kit. In parallel, the number of viable cells in the medium was determined using the MTT colorimetric test. On the basis of these elements, a MMP1 content was determined per viable cell unit.
For each of the heat treatment conditions, a reduction in MMP1 content was observed per viable cell unit in the presence of mangiferin, compared with the content obtained in the references without mangiferin. In this respect, a percentage inhibition of MMP1 expression (Pi) is defined which is calculated using the following formula: Pi(as %)=(Tt−Tm)/Tt in which: • Tm designates the MMP1 content per viable cell unit in the presence of mangiferin; • Tt designates the MMP1 content per viable cell unit for the reference without mangiferin under the same heat treatment conditions.

With `O=c1c2cc(O)c(O)cc2oc2cc(O)c([C@@H]3O[C@H](CO)[C@@H](O)[C@H](O)[C@H]3O)c(O)c12` [mangiferin, C-glucoside of tetrahydroxy-1,3,6,7 xanthone], the “Labeling of the HSP70s” value in the series with HSP70 [1] (NHDFs treated with mangiferin 2.10^-4% for 8 hours after stress (1 hour at +45° C.), vs untreated stressed cells) is listed as “reduced”; in the series on HSP70 [2] (NHDFs treated with mangiferin 2.10^-4% for 15 hours before stress (1 hour at +45° C.), read 8 hours after stress, vs untreated stressed cells) it was “further intensified”. Further, the “Basic expression of the HSP70s (labeling)” value is “not modified” in the series on HSP70 [1] (NHDFs, no stress, mangiferin 2.10^-4% for 8 hours) and “not modified” in the series on HSP70 [2] (NHDFs, no stress, mangiferin 2.10^-4% for 15 hours). In addition, the “Solubility in alkaline liquids” value in series [3] (alkaline liquids (salt formation by phenol OH groups)) was “soluble”. In series [3] (cold water), the “Solubility in cold water” value is on record as “scarcely soluble”. In addition, the “Percentage inhibition Pi of MMP1 expression” value in the series with MMP1 metalloprotease (Cold heat stress: 10 min at −20° C.) is on record as 22%; with MMP1 metalloprotease (Hot heat stress: 30 min at +45° C.), 51%; in the series on MMP1 metalloprotease (Hot heat stress: 30 min at +50° C.), 40%; in the series on MMP1 metalloprotease (Hot heat stress: 1 h at +45° C.) it was 36%; with MMP1 metalloprotease (No heat stress: 1 h at +37° C.), 34%.
